Residues, ends and D or L forms follow the SMILES beside them. *: point of attachment. Cbz = O=C(OCc1ccccc1)*
Tested on: spliced Xbp-1 mRNA (IRE1 arm of the UPR)
Experiment: RT-PCR analysis of Xbp-1 splicing in L444P GC fibroblasts
Format: cell-based, human
Conditions: single exposure 0.8 μM; 2, 4, 6 and 24 h
Protocol: IRE1 responds to stress by oligomerization, resulting in trans-autophosphorylation that activates its endonuclease function, precisely splicing the mRNA that encodes the transcription factor XBP1. Ron et al., Nat Rev Mol Cell Biol 8: 519-529, 2007; Schroeder et al., Ann Rev Biochem 74: 739-789, 2005. RT-PCR was performed to detect the spliced mRNA of XBP1.
RT-PCR analysis of Xbp-1 splicing. cDNA was synthesized as in quantitative RT-PCR. Samples were heated for 5 min at 95° C., amplified in 30 cycles of 60 s at 95° C., 30 s at 58° C., and 30 s at 72° C., and 5 min at 72° C. PCR products were subjected to a 2.5% agarose gel. Unspliced Xbp-1 yielded a 289 bp amplicon, and spliced Xbp-1 yielded a 263 bp amplicon. The experiments were performed three times and similar results were obtained.

SMILES: CC(C)C[C@@H](C=O)NC(=O)[C@H](CC(C)C)NC(=O)[C@H](CC(C)C)NC(=O)OCc1ccccc1 [MG-132] (Cbz-Leu-Leu-Leu-aldehyde)
- spliced Xbp-1 mRNA: no spliced Xbp-1 could be detected

Source: patent US20090203605A1, “Methods For Treating A Condition Characterized By Dysfunction In Protein Homeostasis” (THE SCRIPPS RESEARCH INSTITUTE, priority 2008, published 2009)
